Assay results: patent US20140066365A1, “USE OF CALIXARENES ASSOCIATED WITH AN ANTIBIOTIC IN THE TREATMENT OF BACTERIAL INFECTIONS” (priority 2011, published 2014)
In brackets after ≈: the same amount, converted by molar mass. Several values for one entry are separate records, joined by “and”; a condition that tells them apart may be missing. Equal entries are not always repeated. Where two headings read alike, the source gives them in different places.

Tests used:
[1] = system: mucoid strain of Pseudomonas aeruginosa PaR5; test: MIC of the compounds used alone, microdilution in a liquid medium (CLSI); format: cell-based
Source text: (§1) The MICs of the antibiotics were previously defined for each strain, by the method of microdilution in a liquid medium (CLSI (Clinical and Laboratory Standards Institute), 2003).

[2] = system: Pseudomonas aeruginosa strain PaR3; test: as above; format: cell-based
Source text: as §1

[3] = system: Pseudomonas aeruginosa strain ATCC 27853 (wild type); test: as above; format: cell-based; conditions: P. aeruginosa ATCC 27853
Source text: as §1

[4] = system: Staphylococcus aureus strain ATCC 29213 (wild type); test: as above; format: cell-based; conditions: S. aureus ATCC 29213
Source text: as §1

[5] = system: SaR1: Meticillin-Resistant Staphylococcus aureus without Associated Resistance; test: Antibiogram, inhibition diameter (Table D1); format: cell-based; conditions: for Results: from diameter, against Dmin Dmax
Procedure: (§2) The bacterial and antibiogramidentification is carried out by the VITEK 2 system (bioMérieux)

[6] = system: PaR5: Pseudomonas aeruginosa; test: Antibiogram by the disk diffusion technique; format: cell-based
Procedure: (§3) The bacterial and antibiogramidentification is carried out by the VITEK 2 system (bioMérieux) and by the disk diffusion technique

[7] = system: SaR3: Meticillin-Resistant Staphylococcus aureus; test: Antibiogram by the disk diffusion technique; format: cell-based; conditions: for CA-SFM Interpretation: Cd CA-SFM 2011; for Diameter: Table E1; for Results: Table E1, against Dmin Dmax; for diameter in mm: Table E2
Procedure: as §3

[8] = system: EcR3: ESBL-Producing Escherichia coli; test: Antibiogram by the disk diffusion technique; format: cell-based
Procedure: The bacterial and antibiogramidentification is carried out by the VITEK 2 system (bioMerieux) and by the disk diffusion technique

[9] = system: SaR1: Meticillin-Resistant Staphylococcus aureus without Associated Resistance; test: Antibiogram, MIC by the VITEK 2 system; format: cell-based; conditions: SaR1; for CA-SFM Interpretation: Cc CA-SFM 2011; for EUCAST Interpretation: Cc EUCAST 2011; for Results: from MIC
Procedure: as §2

[10] = system: PaR2: Pseudomonas aeruginosa; format: cell-based
Procedure: as §3

[11] = system: EcR1: Penicillinase-Producing Escherichia coli without Associated Resistance; test: Antibiogram by the disk diffusion technique; format: cell-based
Procedure: 5.1 EcR1: Penicillinase-Producing Escherichia coli without Associated Resistance The bacterial and antibiogramidentification is carried out by the VITEK 2 system (bioMérieux) and by the disk diffusion technique.

[12] = system: MRSA strain having a resistance to the aminoglycosides and fluoroquinolones (SaR3); test: MIC of the compounds used alone, microdilution in a liquid medium (CLSI); format: cell-based, Staphylococcus aureus; conditions: SaR3
Source text: as §1

[13] = system: MRSA strain without associated resistance (SaR1); test: as above; format: cell-based, Staphylococcus aureus; conditions: SaR1
Source text: as §1

[14] = as above; format: cell-based, Staphylococcus aureus; conditions: Staphylococcus aureus, MRSA; antibiotic alone (second value of cell); SaR4; read-out: MIC
Source text: as §1

[15] = system: Escherichia coli, Staphylococcus aureus and Pseudomonas aeruginosa strains; test: Chessboard technique, summary statements over all strains and combinations tested; format: cell-based; conditions: strain not stated
Source text: 1.3. Procedure: Chessboard Technique
The same procedure is followed for the Cx1. […] Thus 64 ATB/Cx1 combinations are obtained.
The FIC (Fractional Inhibitory Concentration Index) value is defined by the following formula: […]
When FIC≦0.5, there is a synergistic effect between antibiotic A and antibiotic B.
When 0.5<FIC≦1, there is an additive effect between antibiotic A and antibiotic B.
When 1<FIC≦4, there is an indifferent effect between antibiotic A and antibiotic B.
When FIC>4, there is an antagonistic effect between antibiotic A and antibiotic B.
For each strain and each antibiotic/Cx1 combination, the experiments were repeated a minimum of 3 times.

[16] = system: SaR4: Meticillin-Resistant Staphylococcus aureus; test: Antibiogram, MIC by the VITEK 2 system; format: cell-based; conditions: SaR4; for CA-SFM Interpretation: Cc CA-SFM 2011; for EUCAST Interpretation: Cc EUCAST 2011; for MIC: Staphylococcus aureus, read-out: MIC
Procedure: as §3

[17] = system: Pseudomonas aeruginosa strain PaR2; test: microbe, parasite or virus in culture; format: cell-based
Source text: as §1

[18] = system: MRSA strain having a resistance to the aminoglycosides, fluoroquinolones, macrolides-lincosamides-synergistins and ofloxacin (SaR4); test: MIC of the compounds used alone, microdilution in a liquid medium (CLSI); format: cell-based, Staphylococcus aureus; conditions: SaR4
Source text: as §1

[19] = system: ESBL-producing strain of Escherichia coli, having an associated resistance to the aminoglycosides (EcR3); test: as above; format: cell-based; conditions: Cx1 alone (first value of cell)
Source text: as §1

[20] = system: penicillinase-producing strain of Escherichia coli without associated resistance (EcR1); test: as above; format: cell-based; conditions: Cx1 alone (first value of cell)
Source text: as §1

[21] = system: cephalosporinase-hyperproducing strain of Escherichia coli (EcR2); test: as above; format: cell-based; conditions: Cx1 alone (first value of cell)
Source text: as §1

[22] = system: Escherichia coli strain ATCC 25922 (wild type); test: as above; format: cell-based; conditions: E. coli ATCC 25922
Source text: as §1

[23] = Pseudomonas aeruginosa, antibiotic alone (second value of cell), read-out: MIC
[24] = Staphylococcus aureus, MRSA, antibiotic alone (second value of cell), read-out: MIC
[25] = antibiotic alone (second value of cell)
[26] = Cx1 alone (first value of cell)

C[C@@H]1O[C@@H]1P(=O)(O)O [Fosfomycin]
MIC [1, 23]: 16 µg/mL | MIC [2, 23]: > 64 µg/mL | MIC ([3]; Pseudomonas aeruginosa, ATCC27853, antibiotic alone (second value of cell), read-out: MIC): 16 µg/mL | MIC ([4]; Staphylococcus aureus, ATCC29213, antibiotic alone (second value of cell), read-out: Initial MICs): 8 µg/mL | Diameter [5]: 40 mm | Results [5]: Susceptible | Diameter ([6]; PaR5, Table I1): 30 mm | Results ([6]; PaR5, Table I1, against Dmin-Dmax): Susceptible | diameter in mm ([6]; disk diffusion inhibition diameter, strain PaR5): 30 mm | CA-SFM Interpretation ([6]; disk diffusion, PaR5, versus critical diameter CA-SFM 2011): Susceptible | CA-SFM Interpretation [7]: Susceptible | Diameter [7]: 26 mm | Results [7]: Susceptible | diameter in mm [7]: 26 mm | CA-SFM Interpretation ([8]; Cd CA-SFM 2011): Susceptible | CLSI Interpretation ([8]; Cd CLSI 2011): Susceptible | Diameter ([8]; Table C1): 23 mm | Results ([8]; Table C1, against Dmin Dmax): Susceptible | diameter in mm ([8]; Table C2): 23 mm | CA-SFM Interpretation [9]: Susceptible | EUCAST Interpretation [9]: Susceptible | Results ([9]; Table D1): Susceptible | MIC mg/L ([9]; Table D2): ≦8 mg/L | MIC ([9]; Staphylococcus aureus, Table D1, read-out: MIC): ≤ 8 µg/mL | CA-SFM Interpretation ([10]; Cd CA-SFM 2011): Resistant | Diameter ([10]; Table G1): 13 mm | Results ([10]; Table G1, against Dmin-Dmax): Resistant | diameter in mm ([10]; Table G2): 13 mm | MIC mg/L (diameter in mm) ([11]; EcR1, cells that print a diameter, Table A2): 24 mm | CA-SFM Interpretation ([11]; EcR1, diameter against CA-SFM 2011 limits): Susceptible | CLSI Interpretation ([11]; EcR1, diameter against CLSI 2011 limits): Susceptible | Diameter ([11]; EcR1, disk diffusion, Table A1): 24 mm | Results ([11]; EcR1, interpretation of the diameter against Dmin Dmax, Table A1): Susceptible | MIC [12, 24]: 16 µg/mL | MIC [13, 24]: 2 µg/mL | MIC [14]: 128 µg/mL | interaction between the antibiotic and Cx1 [15]: synergism | Results ([16]; Table F1, MIC): Resistant | CA-SFM Interpretation ([16]; from MIC): Resistant | EUCAST Interpretation ([16]; from MIC): Resistant | MIC ([16]; Table F1): ≥ 64 µg/mL | MIC ([16]; Table F2, MIC): ≥ 64 µg/mL | MIC [17, 23]: 64 µg/mL (≈ 464 µM)

CC1(C)S[C@@H]2[C@H](NC(=O)Cc3ccccc3)C(=O)N2[C@H]1C(=O)O [Penicillin G]
Initial MICs [4, 25]: 1 mg/L | Diameter [5]: 28 mm | Results [5]: Resistant | CA-SFM Interpretation [7]: Resistant | CLSI Interpretation ([7]; Cd CLSI 2011): Resistant | EUCAST Interpretation ([7]; Cd EUCAST 2011): Resistant | Diameter [7]: 26 mm | Results [7]: Resistant | diameter in mm [7]: 26 mm | CA-SFM Interpretation [9]: Resistant | CLSI Interpretation ([9]; Cc CLSI 2011): Resistant | EUCAST Interpretation [9]: Resistant | MIC mg/L ([9]; Table D1): ≧0.5 mg/L | Results ([9]; Table D1): Resistant | MIC mg/L ([9]; Table D2): ≧0.5 mg/L | MIC [12, 25]: 0.5 µg/mL | MIC [13, 25]: 0.5 µg/mL | MIC [18, 25]: 4 µg/mL | Results ([16]; Table F1, MIC): Resistant | CA-SFM Interpretation ([16]; from MIC): Resistant | CLSI Interpretation ([16]; from MIC, Cc CLSI 2011): Resistant | EUCAST Interpretation ([16]; from MIC): Resistant

para-guanidinoethylcalix[4]arene [Cx1]
MIC [1, 26]: 32 µg/mL | MIC mg/L [1, 26]: 32/32 mg/L | Initial MICs [19]: 2 mg/L | Initial MICs (mg/L) [19]: 2/2 mg/L | Initial MICs [20]: 2 mg/L | Initial MICs [21]: 2 mg/L | Initial MICs (mg/L) [21]: 2/2 mg/L | MIC [2, 26]: 32 µg/mL | MIC mg/L [2, 26]: 32/32 mg/L | MIC [3, 26]: 32 µg/mL | Initial MICs (mg/L), Cx1 ([3]; Cx1 alone): 32/32 mg/L and 32 mg/L | Initial MICs [22, 26]: 4 mg/L and 2 mg/L | Initial MICs (mg/L) [22, 26]: 4/4 mg/L | Initial MICs (mg/L), Cx1 ([22]; Cx1 alone): 4 mg/L | Initial MICs [4, 26]: 8 mg/L | Initial MICs (mg/L) [4, 26]: 8/8 mg/L | Initial MICs (mg/L), Cx1 ([4]; Cx1 alone): 8 mg/L | MIC [12, 26]: 8 µg/mL | MIC mg/L [12, 26]: 8/8 mg/L | MIC [13, 26]: 8 µg/mL | MIC [18, 26]: 8 µg/mL | MIC [17, 26]: 32 µg/mL
